Experimental data: patent US20150004126A9, “COMPOSITIONS” (GIVAUDAN S.A., priority 2011, published 2015)

Experiments:
[1] = Solubility in a cyclodextrin-containing fabric refreshener; assay type: physicochemical; details: at 0.1%
[2] = molecular target: N-alpha acyl glutamine aminoacylase (Corynebacterium striatum, UniProt Q8GGD4); experiment: Malodour generated on cloth with enzyme and HMHA sweat precursor, assessed by a panel; assay type: biochemical, Corynebacteria; details: 0.1% compound in respective test products (un-fragranced base, fragranced base, Febreze) on polycotton cloth with HMHA precursor and enzyme, 37° C. 30 min; panel scale 0-10; vs untreated control
Sequence of N-alpha acyl glutamine aminoacylase (Q8GGD4 whole entry): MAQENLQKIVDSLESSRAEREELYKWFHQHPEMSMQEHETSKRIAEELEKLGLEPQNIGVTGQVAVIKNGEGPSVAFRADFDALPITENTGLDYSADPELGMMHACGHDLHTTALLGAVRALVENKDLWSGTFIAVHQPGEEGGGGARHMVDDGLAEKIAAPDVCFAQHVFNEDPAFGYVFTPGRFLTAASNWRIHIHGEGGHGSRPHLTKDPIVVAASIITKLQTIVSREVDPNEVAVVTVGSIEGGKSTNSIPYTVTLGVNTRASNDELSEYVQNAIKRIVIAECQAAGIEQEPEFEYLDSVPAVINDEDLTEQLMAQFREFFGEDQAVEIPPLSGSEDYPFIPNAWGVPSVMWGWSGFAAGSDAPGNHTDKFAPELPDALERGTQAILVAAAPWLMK
From the text: The objective of the study is to measure the effectiveness of malodour-counteracting compounds for use in the present invention at reducing malodour generated on cloth in the presence of the enzyme N-alpha acyl glutamine aminoacylase, and the sweat precursor for the malodorous fatty acid 3-methyl-3-hydroxy-hexanoic acid (HMHA). The aim is to achieve a significant reduction in malodour on cloth against: • a) an untreated fabric • b) a marketed fabric freshener, namely Spring & Renewal Febreze®.
140 μg of odourless precursor for HMHA (equivalent to 15 minutes of physical exercise) is dissolved in 125 μl of 12% ethanol/88% water and applied to 12.5 cm2 polycotton (40/60 mix) cloth in a 30 ml Beatson jar.
The cloth was allowed to dry completely in a 40° C. oven before checking for residual malodour.
Thereafter, the cloth was moistened with 125 μl of a solution containing 0.33 μg/ml of the enzyme N-α-acyl glutamine aminoacylase in 50 mM phosphate buffer pH 6 and the treated cloth was allowed to incubate in a glass jar at 37° C. for 30 minutes.
Thereafter a few drops of a 10% concentration of HCL were added to protonate the acids.
Malodour was assessed by a panel on a scale of 0 (nothing)-10 (very strong)
Malodour precursor was applied to cloth as described above and the cloth allowed to dry in an oven at 40° C.
125 μl of each of the following solutions was applied on to polycotton cloth already containing the precursor and allowed to dry in a 40° C. oven:
0.1% of the Compounds (I), (II), and (III) defined above (hereinafter referred to generally as “compound”), dissolved in an un-fragranced in-house fabric refresher base 0.1% of each compound dissolved in a fragranced fabric refresher base fragranced with a 0.05% of a proprietary fragrance having a floral-green-aldehyde odour (hereinafter “fragrance”).
0.1% of each inhibitor dissolved in a Febreze(r) Market product (Spring & Renewal) […]

SMILES | solubility in a cyclodextrin-containing fabric refreshener [1] | malodour reduction compared with the control [2]
CCCCC(CC)CNC(=O)N[C@@H](CCC(N)=O)C(=O)O (stereo partly drawn) [Compound III] | soluble | clear and significant malodour reduction
CC(CCOC(=O)NC(CCC(N)=O)C(=O)O)CCc1ccccc1 (stereo not drawn) [Compound II] | soluble | clear and significant malodour reduction
NC(=O)CC[C@H](NC(=O)OCc1ccccc1)C(=O)O [Compound I] | soluble | clear and significant malodour reduction
